{"source": "patent US20070218531A1", "about": "“Micro-Organism and a Method of Producing Paclitaxel by the Use of the Same” (HAIYI BIOTECH PTE LTD, priority 2004, published 2007)", "tested_on": "breast cancer cells", "assay": "In vitro bioactivity analysis: killing of cancer cells by minimal MTT method", "type": "cell-based", "settings": "culture medium RPMI-1640 containing 2% calf serum, compared with paclitaxel standard sample", "excerpt": "FIG. 10 is the chart of the effects of paclitaxel sample made by the method of present invention and standard paclitaxel sample on the killing percentage against […] cells by minimal MTT method by the use of culture medium RPMI-1640 containing 2% calf serum.\nIn vitro bioactivity analysis of the fermented paclitaxel show high efficacy on killing breast cancer cells."}
{"smiles": "CC(=O)O[C@H]1C(=O)[C@@]2(C)[C@H]([C@H](OC(=O)c3ccccc3)[C@]3(O)C[C@H](OC(=O)[C@H](O)[C@@H](NC(=O)c4ccccc4)c4ccccc4)C(C)=C1C3(C)C)[C@]1(OC(C)=O)CO[C@@H]1C[C@@H]2O", "note": "[fermented paclitaxel, 5β, 20-epoxy-1,2α,4,7β 10β 13α-hexahydroxy-tax-11-en-9-one-4,10-diacetate-2-benzoate-13-ester with (2R, 3S)-N-benzoyl-3-phenyl isoserine]", "values": [{"measurement": "efficacy on killing breast cancer cells (killing percentage, FIG. 10)", "result": "high efficacy"}, {"measurement": "efficacy on killing breast cancer cells (killing percentage, FIG. 10)", "setting": "listed as paclitaxel from Examples 20-24", "result": "same effects as paclitaxel standard samples"}]}
